Data published in US20230211023A1, “REPORTER SYSTEM FOR RADIONUCLIDE IMAGING” (Erasmus University Medical Center Rotterdam, priority 2020, published 2023).
pKd: −log10 of the molar value.

Tests used:
LgBiT = LgBiT (Oplophorus gracilirostris, UniProt Q9GV45, A31E/A60N/A81I/D135N/F58L/F95D/G42A/G62A/G78A/G94A/G98A/H120P/I103V/I117V/I134L/K70R/L176M/L54V/L73R/L99Q/M102E/N171T/P142E/Q151K/Q38E/Q45L/V71I/Y165I); details: Dixon et al., 2016; read-out: Kd for binding to LgBiT / NLuc; cited from earlier work
Chain of LgBiT (Q9GV45 other isoform, or with tags, fused parts or gaps with the stated changes): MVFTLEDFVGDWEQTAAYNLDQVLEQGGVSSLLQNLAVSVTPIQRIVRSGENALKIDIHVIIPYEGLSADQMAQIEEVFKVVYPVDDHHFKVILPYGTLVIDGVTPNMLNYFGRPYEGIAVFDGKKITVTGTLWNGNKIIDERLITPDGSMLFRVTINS

[1] = system: cells expressing the reporter gene TMLgBiT; experiment: Binding of radiolabelled peptide to live cells expressing TMLgBiT, gamma counter; type: cell-based; details: 1 nM peptide, 20,000 cells/well, washed three times
Chain of cells expressing the reporter gene TMLgBiT (as listed by the source): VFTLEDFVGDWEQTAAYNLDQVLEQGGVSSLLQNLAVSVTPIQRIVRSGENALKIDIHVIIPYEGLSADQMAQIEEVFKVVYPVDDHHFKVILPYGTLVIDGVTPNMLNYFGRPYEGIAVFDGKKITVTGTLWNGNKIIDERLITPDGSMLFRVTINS
Procedure: The [^111In]-DOTA-6ahx-HiBiT peptide (1 nM) is added to cells expressing the reporter gene TMLgBiT and cells not expressing TMLgBiT are used as negative control (20,000 cells/well). Cells are washed three times and radioactivity measured at a gamma counter. A clear difference in radioactive signal (2000 fold) resulted between TMLgBiT expressing cells and cells non expressing the reporter gene. In FIG. 3, the radiation (in CPM, measured using a gamma counter) of cells expressing TMLgBiT and control cells after addition of […] of radioactive [^111In]-DOTA-6ahx-HiBiT peptide is provided.

PC3-TMLgBiT tumors = experiment: BL and dynamic SPECT/CT imaging of mice bearing PC3-TMLgBiT tumors (FIG. 7); type: in vivo, mouse; details: dynamic SPECT scan 1 hour after injection of 0,13 nM
Chain of PC3-TMLgBiT tumors (as listed by the source): as above
Procedure: For these experiments, eight-week-old nude BALB/C male mice (n=12) were injected with 5x10^6 PC-3-TM-LgBiT expressing cells (n=8). Cells were prepared for injections in PBS (Sigma-Aldrich) and matrigel (Corning) solution with a 50:50 ratio and a final injectable volume of 50 µL. Tumors were left to grow approximately 3-4 weeks post tumor cell implantation. To determine the functionality of the imaging system, a dynamic whole body SPECT/CT scan (VECT/CT Milabs) was performed. Mice were anesthetized using 1-2% isoflurane/O2 and the body temperature was maintained at 37° C. during the time of imaging (1 h) by using a heated bed aperture. The 1-hour dynamic SPECT/CT scan was performed immediately after tail vein injection of [^111In]-DOTA-6ahx-HiBiT for the PC-3 tumor model, (20 MBq labeled to 0.13 nmol in 200 µL PBS). […] Dynamic scans were obtained over a total duration of 1 h with 30 time frames, directly after injection of [^111In]-DOTA-6ahx-HiBiT. Acquired images were reconstructed using SR-OSEM with 9 iterations and 128 subsets on a 36 × 36 × 35 mm matrix with 0.80 × 0.80 mm isotropic voxels.

[2] = system: subcutaneously injected TMLgBiT expressing cells; experiment: SPECT imaging of mouse injected subcutaneously with TMLgBiT expressing cells; type: in vivo; details: 1 hour after injection of peptide, 20 MBq
Chain of subcutaneously injected TMLgBiT expressing cells (as listed by the source): as above

Substance | pKd (LgBiT) | difference in radioactive signal between TMLgBiT expressing cells and cells not expressing the reporter gene [1] [fold] | SPECT signal from tumor (PC3-TMLgBiT tumors) | SPECT detection of TMLgBiT expressing cells in vivo [2] | SPECT detection of TMLgBiT expressing cells in vivo ([2]; listed as 111In -DOTA-6ax-HiBit) | SPECT detection of TMLgBiT expressing cells in vivo ([2]; listed as radiolabeled HiBiT peptide)
NVTGYRLFKKISN [NLpep79] | 8.07 |  |  |  |  | 
NVSGWRLFKKISN [NLpep78] | 8.47 |  |  |  |  | 
[^111In]-DOTA-6ahx-HiBiT: DOTA-6ahx-HiBiT radiolabelled with indium-111 |  | 2000 | specific signal from tumor is visible | can be specifically detected | could be detected in vivo | High specific signal is detected
